From US9504674B2, “TrkB agonists and methods of use” (EMORY UNIVERSITY, priority 2010, dated 2016)

Assays:
active caspase-3 = experiment: Active caspase-3 ELISA in glutamate-treated cortical neurons; type: cell-based, rat; settings: 30 min pretreatment, then glutamate 16 h; for caspase-3 activation after glutamate: 50 nM or higher
Procedure: 4′-Dimethylamino-7,8-dihydroxyflavone prevents neurons from apoptosis in a TrkB-dependent manner. Cortical neurons were prepared from E16 rat embryonic. The neurons were pretreated with different doses of compounds as indicated for 30 min, followed by 50 μM glutamate for 16 h. The cell lysates were analyzed by active caspase-3 ELISA.
To quantitatively compare the anti-apoptotic activity by these two TrkB agonists, cortical neurons were pretreated with various concentrations of 4′-DMA-7,8-DHF and 7,8-DHF for 30 min, followed by […] for 16 h. Cell lysates were quantitatively analyzed with an active caspse-3 ELISA. […] To investigate whether these compounds exert any neuroprotective effects in animals, both compounds (5 mg/kg) were orally injected into mice. At 0, 2 h or 6 h, kainic acid (KA)(20 mg/kg) was administered intraperitoneally. At 2 h, mice were sacrificed and hippocampal regions were prepared. […] This kinetic spectrum tightly coupled to the TrkB activation status observed when treated with 7,8-DHF (FIG. 3C, right panel).

TrkB F616A = target: T1, TrkB F616A (Mus musculus, UniProt P15209, F616A); experiment: Forced swim test in TrkB F616A knockin mice with or without 1NMPP1; type: in vivo; settings: drugs administrated for 5 days; for immobility time in forced swim test, TrkB F616A knockin mice, after 1NMPP1 treatment: 1NMPP1 (25 μM) in drinking water; for immobility time in forced swim test, TrkB F616A knockin mice, saline group: regular drinking water
T1 construct: from tissue; host or cells: TrkB F616A knock-in mice (brain; whole animal in the forced swim test)
T1 sequence (P15209 32-821 F616A): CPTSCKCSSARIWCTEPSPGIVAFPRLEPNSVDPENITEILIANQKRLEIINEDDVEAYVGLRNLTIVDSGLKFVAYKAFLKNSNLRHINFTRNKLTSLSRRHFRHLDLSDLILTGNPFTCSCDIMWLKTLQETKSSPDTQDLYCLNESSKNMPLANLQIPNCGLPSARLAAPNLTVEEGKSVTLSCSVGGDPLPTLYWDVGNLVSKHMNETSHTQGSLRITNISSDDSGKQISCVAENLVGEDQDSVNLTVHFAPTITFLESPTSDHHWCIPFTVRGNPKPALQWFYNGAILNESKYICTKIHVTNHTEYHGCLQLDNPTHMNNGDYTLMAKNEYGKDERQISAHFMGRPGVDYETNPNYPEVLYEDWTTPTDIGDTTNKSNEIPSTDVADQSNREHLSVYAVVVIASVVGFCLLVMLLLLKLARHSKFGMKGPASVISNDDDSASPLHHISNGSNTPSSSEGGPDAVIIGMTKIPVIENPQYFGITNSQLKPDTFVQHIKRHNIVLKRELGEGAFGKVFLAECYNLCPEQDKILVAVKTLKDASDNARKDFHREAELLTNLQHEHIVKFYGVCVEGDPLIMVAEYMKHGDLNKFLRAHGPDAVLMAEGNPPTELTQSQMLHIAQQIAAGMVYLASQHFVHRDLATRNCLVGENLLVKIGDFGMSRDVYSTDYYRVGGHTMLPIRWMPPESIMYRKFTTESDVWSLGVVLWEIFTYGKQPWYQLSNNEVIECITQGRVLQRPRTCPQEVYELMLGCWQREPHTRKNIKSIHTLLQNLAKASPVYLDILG
Procedure: Male TrkB knockin mice were given the regular drinking water or 1NMPP1 (25 μM) containing drinking water one day before we started to inject the drugs and sustained throughout the whole experiment. The indicated control (saline) and drugs were administrated for 5 days. […] None of the drugs produced a significant change in 1NMPP1 treated TrkB KI mice (n=6 to 7 mice) as compared to control.
TrkB F616A knockin mice were used to assess whether the behavior responses by 7,8-DHF and its derivative is mediated by TrkB receptor. Transgenic mice were subjected to saline or 1NMPP1 pretreatment, respectively.

Akt = Akt activation / p-Akt 473 ELISA in primary cortical neurons; type: cell-based, rat; settings: 500 nM
Procedure: The cell lysates (20 μg/sample) from the neurons treated with various indicated drugs were analyzed by p-Akt ELISA. The quantitative p-Akt activity in ELISA correlated with TrkB activity. Results were expressed as mean (SEM(*P<0.05, compared with the vehicle control group, Student t test, n=3).
Phospho-Akt ELISA assay by the synthetic compounds in cortical neurons. Primary cortical cultures from […] rat embryos were treated with 500 nMof various 7,8-DHF derivatives. The cell lysates were analyzed by the ELISA (left panel) (*, P<0.05; ***, P<0.001 vs vehicle, Student's t test). Different doses of 4′-DMA-7,8-DHF and 7,8-DHF were incubated with primary cortical neurons for 15 min. The cell lysates (20 μg) were analyzed with p-Akt ELISA (right panel) (*, P<0.05; **, P<0.01; ***, P<0.001 vs control; one-way ANOVA: b, P<0.01; c, P<0.001 vs 7,8-DHF at same concentration, Student's t test). […]
7,8-dihydroxyflavone (7,8-DHF) is a small molecular TrkB agonist. […] The cell lysates were analyzed by immunoblotting. […]
To compare the TrkB activation by these synthetic compounds, primary cortical cultures were prepared. […] TrkB activation was monitored at different time points.
Additional compounds are listed as designated from a to m (FIG. 6A). […] The cell lysates were analyzed by immunoblotting. […] Moreover, p-Akt ELISA was monitored to quantitatively analyze the agonistic activities of these compounds.

MAPK = MAPK phosphorylation in primary neurons (immunoblotting); type: cell-based, rat; settings: 500 nM, time course
Procedure: Rat primary neurons were treated with 500 nM. 4′-DMA-7,8-DHF from various time points. The neuronal lysates were analyzed with various antibodies. 4′-DMA-7,8-DHF rapidly activated TrkB and its downstream signaling cascades (left panels). […] One mg/kg of 4′-DMA-7,8-DHF and 7,8-DHF were orally administrated into C57 BL/6J mice and TrkB phosphorylation and its downstream signaling cascades including Akt and MAPK in mouse brain were analyzed by immunoblotting at various time points. TrkB activation by 4′-DMA-7,8-DHF peaked at 4 h, whereas the maximal TrkB activation by 7,8-DHF in mouse brain occurred at 1-2 h (middle panels).
To compare the TrkB activation by these synthetic compounds, primary cortical cultures were prepared. Cortical neurons were treated with 500 nM of various compounds for 20 min and cell lysates were collected. […] Replacing the H-bond acceptor O atom with hydrogen bond donor NH abolishes its stimulatory effect. […] On the other hand, 7,8-DHF provoked TrkB activation with the minimal concentration of 100 nM (FIG. 2B, right panels). To further study 4′-DMA-7,8-DHF's kinetics on TrkB activation, primary neurons were treated for various time points. 4′-DMA-7,8-DHF swiftly activated TrkB as soon as 5 minutes following treatment. […] TrkB activation was monitored at different time points.

SMILES | caspase-3 activation after glutamate (active caspase-3) | immobility time in forced swim test, TrkB F616A knockin mice, after 1NMPP1 treatment (TrkB F616A) | immobility time in forced swim test, TrkB F616A knockin mice, saline group (TrkB F616A) | agonistic activity by p-Akt ELISA in neurons (Akt; 20 min, primary rat cortical neurons (13 DIV)) | Akt activation pattern over time (Akt; primary neurons, time course) | time of peak MAPK phosphorylation (MAPK) | inhibition of caspase-3 activation after glutamate (active caspase-3; 10 nM)
O=c1cc(-c2ccccc2)oc2c(O)c(O)ccc12 [7,8-DHF, 7,8-dihydroxyflavone, reference compound] | substantially blocked caspase-3 activation | neither 4′-DMA-7,8-DHF nor 7,8-DHF had any significant effect on the immobility time | substantially reduced the immobility time |  |  |  | 
CN(C)c1ccc(-c2cc(=O)c3ccc4nc[nH]c4c3o2)cc1 [compound m, 8-(4-(dimethylamino)phenyl)chromeno[7,8-d]imidazol-6(1H)-one] |  |  |  | possesses the strongest effect in activating TrkB receptor |  |  | 
CN(C)c1ccc(-c2cc(=O)c3ccc(O)c(O)c3o2)cc1 [4′-DMA-7,8-DHF, 4′-dimethylamino-7,8-dihydroxyflavone] | substantially blocked caspase-3 activation | neither 4′-DMA-7,8-DHF nor 7,8-DHF had any significant effect on the immobility time | substantially reduced the immobility time |  | temporally coupled to TrkB activation | 10 min | more robust inhibitory effect than 7,8-DHF
